Experimental findings from ChEMBL document CHEMBL1135347, “Spirocyclic NK(1) antagonists II: [4.5]-spiroethers” (Bioorg Med Chem Lett, 2002) are described below.

For one data set, the target named is Substance-P receptor (Homo sapiens, UniProt P25103). Kind of data set: Displacement of [125I]-labeled substance P from the cloned human Tachykinin receptor 1 expressed in CHO cells. The class given is cell-based. A general note: Loss of bound radioactivity is the signal in a displacement assay; it reports binding, not function.
Substance-P receptor, sequence (P25103 whole entry, the tested form may be a part): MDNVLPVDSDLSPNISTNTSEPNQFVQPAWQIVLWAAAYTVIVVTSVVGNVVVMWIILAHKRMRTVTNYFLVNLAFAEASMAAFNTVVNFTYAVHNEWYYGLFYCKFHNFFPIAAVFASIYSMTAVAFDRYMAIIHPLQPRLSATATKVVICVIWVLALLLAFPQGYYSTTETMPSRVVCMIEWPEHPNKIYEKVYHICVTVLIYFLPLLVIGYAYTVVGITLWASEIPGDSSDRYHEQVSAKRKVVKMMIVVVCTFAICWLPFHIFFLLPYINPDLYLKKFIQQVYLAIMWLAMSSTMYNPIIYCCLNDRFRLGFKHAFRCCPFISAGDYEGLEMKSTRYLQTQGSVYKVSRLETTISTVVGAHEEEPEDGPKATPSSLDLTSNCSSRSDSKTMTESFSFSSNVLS
Data set [1] concerns Gerbillinae. Description: Ability to inhibit the foot tapping in gerbil immediately following central infusion of GR-73632 (agonist), 5 min after intravenous administration of compound. As to conditions: read-out: ID50 (the source's name). The format is functional.
Data set [2] relates to Gerbillinae. Description: Ability to inhibit the foot tapping in gerbil immediately following central infusion of GR-73632 (agonist), 5 min after intravenous administration of compound (1 mg/kg). The class given is functional.
The test system of data set [3] is Mustela putorius furo. Kind of data set: Compound was tested for inhibition of emetic response in ferret by administering intravenously following emetogen challenge after 3 min (iv). The class given is functional.
For data set [4], the system named is Mustela putorius furo. Description: Compound was tested for inhibition of emetic response in ferret by administering perorally following emetogen challenge after 60 min (po). The class given is functional.
Data set [5] can be described thus: Half-life in Dog. The class given is ADME, organism-based, Canis lupus familiaris. The note with it: in vivo.
A short description of data set [6]: Bioavailability in rat. The format is ADME, organism-based. As to conditions: in vivo.
A short description of data set [7]: Bioavailability in dog. The format is ADME, organism-based, Canis lupus familiaris. As to conditions: in vivo.
Data set [8] in a line: Half-life in rat. The class given is ADME, organism-based. The note with it: in vivo.

Molecules are shown by their SMILES.

Usually IC50 stands for the midpoint of a concentration-inhibition curve. The low end stands for greater potency in that assay, the high end for weaker potency in that assay. `c1ccc([C@H]2COC3(CCCN[C@H]3c3ccccc3)C2)cc1` (stereo not given in full) displayed an IC50 at Substance-P receptor of 133 nM.
Still for that read-out and setting: the figure for `COc1ccccc1C1=CC2(CCCNC2c2ccccc2)OC1` (stereo not given) is 49 nM.
For `COc1ccc(-n2nnnc2C(F)(F)F)cc1[C@H]1COC2(CCCN(Cc3c[nH]cn3)C2c2ccccc2)C1` (stereo not given in full), the ED50 in the data set with Gerbillinae [1] is 0.5 mg/kg. Also, the IC50 on Substance-P receptor was 0.11 nM.
On the same counts, the results for `COc1ccc(OC(F)(F)F)cc1C1=CC2(CCCNC2c2ccccc2)OC1` (stereo not given) are 0.2 mg/kg and 0.35 nM.
By Inhibition is commonly meant the drop in the measured response relative to a control, in per cent. Molecule `COc1ccc(OC(F)(F)F)cc1[C@H]1COC2(CCCN(Cc3nc[nH]n3)C2c2ccccc2)C1` (stereo not given in full) had an Inhibition with Gerbillinae [2] of 45%. The molecule also displayed an IC50 at Substance-P receptor of 0.89 nM.
For `COc1ccc(OC(F)(F)F)cc1[C@H]1COC2(CCCN[C@H]2c2ccccc2)C1` (stereo not given in full), the values for the ID90 in the data set with Mustela putorius furo [3] and in the data set on Mustela putorius furo [4] were 1 mg/kg and 3 mg/kg, respectively. The ED50 in the data set on Gerbillinae [1] was determined as 0.3 mg/kg. Further, the IC50 at Substance-P receptor was 0.3 nM.
In the case of `COc1ccc(-n2nnnc2C(F)(F)F)cc1C1=CC2(CCCN[C@H]2c2ccccc2)OC1` (stereo not given in full), the ED50 with Gerbillinae [1] was determined as 0.1 mg/kg. On Substance-P receptor, the IC50 stood at 0.08 nM.
`COc1ccc(-n2nnnc2C(F)(F)F)cc1[C@H]1COC2(CCCN(Cc3n[nH]c(O)n3)C2c2ccccc2)C1` (stereo not given in full) came in with an Inhibition with Gerbillinae [2] of 6%. Moreover, at Substance-P receptor, the IC50 is 0.1 nM.
The half-life is the time needed for the level to fall by half in the phase considered. A lower half-life goes with fast loss. By bioavailability is commonly meant dose-corrected exposure relative to a reference, in per cent. A low value points to little systemic uptake. On to `COc1ccc(-n2nnnc2C(F)(F)F)cc1[C@H]1COC2(CCCNC2c2ccccc2)C1` (stereo not given in full), for which the half-life in data set [5] is 2.7 h; in data set [8], 1.7 h. Besides, the bioavailability was 16% in data set [6] and 79% in data set [7]. The values for the ID90 with Mustela putorius furo [3] and in the data set with Mustela putorius furo [4] were 0.2 mg/kg and 1 mg/kg, respectively. The ED50 with Gerbillinae [1] was 0.1 mg/kg. In addition, the IC50 on Substance-P receptor was 0.11 nM.
Consider `COc1ccccc1[C@H]1COC2(CCCNC2c2ccccc2)C1` (stereo not given in full), for which the IC50 on Substance-P receptor worked out at 6.5 nM.
